Measured values as given in patent US10800791B2, “Triazole ACC inhibitors and uses thereof” (Gilead Apollo, LLC, priority 2015, dated 2020).
In brackets after ≈: the same amount, converted by molar mass. Where two headings read alike, the source gives them in different places.

Columns and labels:
[1] = molecular target: human (hACC2) (Homo sapiens, UniProt O00763); assay: In vitro ACC inhibition assay (ADP-Glo), hACC2; format: biochemical; conditions: 5 nM ACC2, 20 μM ATP, 20 μM acetyl-CoA
Description: The detailed procedure is as follows. […] 10 μL ADP glo reagent was added. […] 20 μL kinase detection reagent was added.

[2] = system: C. albicans; assay: Antifungal Activity Assay (broth microtiter MIC), C. albicans; format: cell-based, Candida albicans; conditions: Candida albicans, ATCC90028, 48 h, ATCC 90028, 3 replicates, MIC recorded at 48 h, read-out: MIC, C. albicans ATCC 90028
Procedure, shortened: (§1)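 CLSI M27-A3 broth microdilution in RPMI 1640+MOPS, final inoculum 2.5×10^3 CFU/mL from overnight Sabouraud cultures grown at 35 °C. MIC read visually at 48 h against growth control.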

[3] = system: C. krusei; assay: Antifungal Activity Assay (broth microtiter MIC), C. krusei; format: cell-based, Candida krusei; conditions: Pichia kudriavzevii, ATCC6258, 48 h, ATCC 6258, 3 replicates, MIC recorded at 48 h, read-out: MIC, C. krusei ATCC 6258
Procedure, shortened: as §1

[4] = system: C. parapsilosis; assay: Antifungal Activity Assay (broth microtiter MIC), C. parapsilosis; format: cell-based, Candida parapsilosis; conditions: Lodderomyces parapsilosis, ATCC22019, 48 h, ATCC 22019, 3 replicates, MIC recorded at 48 h, read-out: MIC, C. parapsilosis ATCC 22019
Procedure, shortened: as §1

[5] = system: Botrtyis cinerea (Bc); assay: Growth inhibition assay of fungal pathogens, Bc; format: cell-based; conditions: 48 h, Botrtyis cinerea, read-out: Concentration at 90% Inhibition Bc
Description: (§2) Compounds of the present invention were evaluated in a growth inhibition assay to determine the ability to control the growth of fungal pathogens, such as Botrtyis cinerea (Bc), Collectotrichum graminicola (Cg), Diplodia maydis (Dm), Fusarium moniliforme (Fm), Fusarium virguliforme (Fv), Phytophthora capsici (Pc), Rhizoctonia solani (Rs), and Septoria tritici (St).
(§3) Compounds to be tested were dissolved in DMSO at 2.5 mg/ml to produce compound stock solutions (“stocks”). Stocks were diluted with DMSO by a five-fold dilution in a 96-well stock plate, and two sets of final concentrations of 50, 10, and 2 ppm or 2, 0.4, and 0.08 ppm were obtained in vitro. A set of positive controls was also prepared, with various concentrations of Soraphen (2, 0.4, and 0.08 ppm), Metalaxyl (1.1, 0.22, and 0.04 ppm), and Metconazole (2, 0.4, and 0.08 ppm or 0.2, 0.04, and 0.008 ppm) after the five-fold dilutions. Negative controls on each plate included 2% DMSO, water, and a blank (media+2% DMSO).
(§4) Fungal spores were isolated from previously sub-cultured plates of Botrtyis cinerea (Bc), Collectotrichum graminicola (Cg), Diplodia maydis (Dm), Fusarium moniliforme (Fm), Fusarium virguliforme (Fv), Phytophthora capsici (Pc), and Septoria tritici (St). The isolated spores were diluted to individual concentrations with a 17% V8 liquid media. For Rhizoctonia solani (Rs) and Pythium irregulare, 1.5 mm mycelial plugs were used in place of spores and/4 Potato Dextrose Broth (PDB) was used for dilution. The spore concentrations and plug sizes were based on growth curves generated at 48 hours for each pathogen.
(§5) In a second 96-well plate, the spores or mycelial plugs, media, diluted compound solutions, and controls were combined. Once the compound was added, a true final concentration of compound in each well was measured by an OD600 reading, which adjusted for any compound precipitation that might have occurred in the well. Plate readings were repeated at both 24 and 48 hours. The blank negative control was used as a background subtraction. Additional visual ratings were performed at both 24 and 48 hours for checking on precipitation and confirming efficacy. Visual and OD600 ratings of the compounds at 48 hours were compared to the 2% DMSO negative control, and the percent of pathogen growth inhibition was determined based on those values.

[6] = system: Collectotrichum graminicola (Cg); assay: Growth inhibition assay of fungal pathogens, Cg; format: cell-based; conditions: 48 h, Collectotrichum graminicola, read-out: Concentration at 90% Inhibition Cg
Description: as §2, §3, §4, §5

[7] = system: Diplodia maydis (Dm); assay: Growth inhibition assay of fungal pathogens, Dm; format: cell-based; conditions: Stenocarpella maydis, 48 h, Diplodia maydis, read-out: Concentration at 90% Inhibition Dm
Description: as §2, §3, §4, §5

[8] = system: Fusarium moniliforme (Fm); assay: Growth inhibition assay of fungal pathogens, Fm; format: cell-based; conditions: Fusarium verticillioides, 48 h, Fusarium moniliforme, read-out: Concentration at 90% Inhibition Fm
Description: as §2, §3, §4, §5

[9] = system: Fusarium virguliforme (Fv); assay: Growth inhibition assay of fungal pathogens, Fv; format: cell-based; conditions: 48 h, read-out: Concentration at 90% Inhibition Fv
Description: as §2, §3, §4, §5

[10] = system: Phytophthora capsici (Pc); assay: Growth inhibition assay of fungal pathogens, Pc; format: cell-based; conditions: 48 h, read-out: Concentration at 90% Inhibition Pc
Description: as §2, §3, §4, §5

[11] = system: Rhizoctonia solani (Rs); assay: Growth inhibition assay of fungal pathogens, Rs; format: cell-based; conditions: 48 h, mycelial plugs, read-out: Concentration at 90% Inhibition Rs
[12] = system: Septoria tritici (St); assay: Growth inhibition assay of fungal pathogens, St; format: cell-based; conditions: Zymoseptoria tritici, 48 h, Septoria tritici, read-out: Concentration at 90% Inhibition St
Description: as §2, §3, §4, §5

[13] = molecular target: fungal (fACC2) (UniProt Q00955); conditions: read-out: fACC2 (in vitro ACC2 Inhibition Assay, IC50), ADP-Glo, 5 nM ACC2, 20 μM ATP, 20 μM acetyl-CoA
Chain of fungal (fACC2) (Q00955 whole entry): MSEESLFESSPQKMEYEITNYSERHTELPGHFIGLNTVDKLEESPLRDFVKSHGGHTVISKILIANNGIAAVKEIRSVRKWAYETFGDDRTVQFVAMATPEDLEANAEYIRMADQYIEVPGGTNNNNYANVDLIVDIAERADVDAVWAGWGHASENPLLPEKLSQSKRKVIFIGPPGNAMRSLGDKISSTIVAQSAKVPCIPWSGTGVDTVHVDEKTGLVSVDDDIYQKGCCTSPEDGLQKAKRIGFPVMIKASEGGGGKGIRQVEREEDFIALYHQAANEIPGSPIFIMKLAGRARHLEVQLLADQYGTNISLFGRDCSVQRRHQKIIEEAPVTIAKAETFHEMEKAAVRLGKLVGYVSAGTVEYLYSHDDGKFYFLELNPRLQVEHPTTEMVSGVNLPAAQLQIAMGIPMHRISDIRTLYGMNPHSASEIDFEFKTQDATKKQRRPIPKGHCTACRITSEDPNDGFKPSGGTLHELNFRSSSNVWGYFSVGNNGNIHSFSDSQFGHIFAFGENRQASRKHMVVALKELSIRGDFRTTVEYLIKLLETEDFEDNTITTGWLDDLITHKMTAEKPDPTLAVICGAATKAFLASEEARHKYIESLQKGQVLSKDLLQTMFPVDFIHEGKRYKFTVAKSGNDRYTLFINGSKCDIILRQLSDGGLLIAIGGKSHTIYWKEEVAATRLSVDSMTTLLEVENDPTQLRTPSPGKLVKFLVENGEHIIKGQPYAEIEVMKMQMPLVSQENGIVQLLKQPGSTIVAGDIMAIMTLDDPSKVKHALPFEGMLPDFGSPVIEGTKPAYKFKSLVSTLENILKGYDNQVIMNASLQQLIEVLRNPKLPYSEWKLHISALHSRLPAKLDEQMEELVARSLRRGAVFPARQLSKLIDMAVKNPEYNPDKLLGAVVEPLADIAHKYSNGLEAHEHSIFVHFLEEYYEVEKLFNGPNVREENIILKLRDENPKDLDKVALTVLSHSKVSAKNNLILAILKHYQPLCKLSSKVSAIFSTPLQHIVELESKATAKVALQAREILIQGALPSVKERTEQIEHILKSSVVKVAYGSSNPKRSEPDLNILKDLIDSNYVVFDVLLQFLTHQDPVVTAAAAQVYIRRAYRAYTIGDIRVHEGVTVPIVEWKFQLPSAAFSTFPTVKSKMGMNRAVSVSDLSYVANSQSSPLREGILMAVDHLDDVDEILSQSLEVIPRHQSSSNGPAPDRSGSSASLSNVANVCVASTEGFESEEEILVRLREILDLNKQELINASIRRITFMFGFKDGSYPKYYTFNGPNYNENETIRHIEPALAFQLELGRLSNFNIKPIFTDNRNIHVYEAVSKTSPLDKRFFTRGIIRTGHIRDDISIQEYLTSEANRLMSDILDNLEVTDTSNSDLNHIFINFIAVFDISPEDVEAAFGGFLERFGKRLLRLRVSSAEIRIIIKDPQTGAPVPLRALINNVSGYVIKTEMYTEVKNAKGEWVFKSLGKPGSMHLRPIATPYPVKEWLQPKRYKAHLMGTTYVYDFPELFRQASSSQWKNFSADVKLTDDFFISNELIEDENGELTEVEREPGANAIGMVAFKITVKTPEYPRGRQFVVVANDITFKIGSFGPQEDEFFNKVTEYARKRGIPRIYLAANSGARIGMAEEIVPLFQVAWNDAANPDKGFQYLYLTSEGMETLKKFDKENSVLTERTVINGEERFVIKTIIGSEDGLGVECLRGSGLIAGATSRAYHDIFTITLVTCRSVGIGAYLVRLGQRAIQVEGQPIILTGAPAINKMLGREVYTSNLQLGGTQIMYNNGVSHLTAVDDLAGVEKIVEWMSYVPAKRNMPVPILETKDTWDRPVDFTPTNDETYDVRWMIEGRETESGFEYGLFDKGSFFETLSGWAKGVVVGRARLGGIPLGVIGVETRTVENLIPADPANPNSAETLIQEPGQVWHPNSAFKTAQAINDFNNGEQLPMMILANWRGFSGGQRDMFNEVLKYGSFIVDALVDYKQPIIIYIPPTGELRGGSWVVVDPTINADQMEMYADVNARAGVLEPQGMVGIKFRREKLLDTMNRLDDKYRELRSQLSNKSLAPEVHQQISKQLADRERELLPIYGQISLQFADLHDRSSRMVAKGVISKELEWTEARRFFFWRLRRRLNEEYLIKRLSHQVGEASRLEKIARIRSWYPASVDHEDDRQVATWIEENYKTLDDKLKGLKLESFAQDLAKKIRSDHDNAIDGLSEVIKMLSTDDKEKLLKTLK

[14] = growth inhibition vs 2% DMSO control at 48 hours
[15] = growth inhibition at 48 hours vs 2% DMSO control

Chain of human (hACC2) (O00763 whole entry): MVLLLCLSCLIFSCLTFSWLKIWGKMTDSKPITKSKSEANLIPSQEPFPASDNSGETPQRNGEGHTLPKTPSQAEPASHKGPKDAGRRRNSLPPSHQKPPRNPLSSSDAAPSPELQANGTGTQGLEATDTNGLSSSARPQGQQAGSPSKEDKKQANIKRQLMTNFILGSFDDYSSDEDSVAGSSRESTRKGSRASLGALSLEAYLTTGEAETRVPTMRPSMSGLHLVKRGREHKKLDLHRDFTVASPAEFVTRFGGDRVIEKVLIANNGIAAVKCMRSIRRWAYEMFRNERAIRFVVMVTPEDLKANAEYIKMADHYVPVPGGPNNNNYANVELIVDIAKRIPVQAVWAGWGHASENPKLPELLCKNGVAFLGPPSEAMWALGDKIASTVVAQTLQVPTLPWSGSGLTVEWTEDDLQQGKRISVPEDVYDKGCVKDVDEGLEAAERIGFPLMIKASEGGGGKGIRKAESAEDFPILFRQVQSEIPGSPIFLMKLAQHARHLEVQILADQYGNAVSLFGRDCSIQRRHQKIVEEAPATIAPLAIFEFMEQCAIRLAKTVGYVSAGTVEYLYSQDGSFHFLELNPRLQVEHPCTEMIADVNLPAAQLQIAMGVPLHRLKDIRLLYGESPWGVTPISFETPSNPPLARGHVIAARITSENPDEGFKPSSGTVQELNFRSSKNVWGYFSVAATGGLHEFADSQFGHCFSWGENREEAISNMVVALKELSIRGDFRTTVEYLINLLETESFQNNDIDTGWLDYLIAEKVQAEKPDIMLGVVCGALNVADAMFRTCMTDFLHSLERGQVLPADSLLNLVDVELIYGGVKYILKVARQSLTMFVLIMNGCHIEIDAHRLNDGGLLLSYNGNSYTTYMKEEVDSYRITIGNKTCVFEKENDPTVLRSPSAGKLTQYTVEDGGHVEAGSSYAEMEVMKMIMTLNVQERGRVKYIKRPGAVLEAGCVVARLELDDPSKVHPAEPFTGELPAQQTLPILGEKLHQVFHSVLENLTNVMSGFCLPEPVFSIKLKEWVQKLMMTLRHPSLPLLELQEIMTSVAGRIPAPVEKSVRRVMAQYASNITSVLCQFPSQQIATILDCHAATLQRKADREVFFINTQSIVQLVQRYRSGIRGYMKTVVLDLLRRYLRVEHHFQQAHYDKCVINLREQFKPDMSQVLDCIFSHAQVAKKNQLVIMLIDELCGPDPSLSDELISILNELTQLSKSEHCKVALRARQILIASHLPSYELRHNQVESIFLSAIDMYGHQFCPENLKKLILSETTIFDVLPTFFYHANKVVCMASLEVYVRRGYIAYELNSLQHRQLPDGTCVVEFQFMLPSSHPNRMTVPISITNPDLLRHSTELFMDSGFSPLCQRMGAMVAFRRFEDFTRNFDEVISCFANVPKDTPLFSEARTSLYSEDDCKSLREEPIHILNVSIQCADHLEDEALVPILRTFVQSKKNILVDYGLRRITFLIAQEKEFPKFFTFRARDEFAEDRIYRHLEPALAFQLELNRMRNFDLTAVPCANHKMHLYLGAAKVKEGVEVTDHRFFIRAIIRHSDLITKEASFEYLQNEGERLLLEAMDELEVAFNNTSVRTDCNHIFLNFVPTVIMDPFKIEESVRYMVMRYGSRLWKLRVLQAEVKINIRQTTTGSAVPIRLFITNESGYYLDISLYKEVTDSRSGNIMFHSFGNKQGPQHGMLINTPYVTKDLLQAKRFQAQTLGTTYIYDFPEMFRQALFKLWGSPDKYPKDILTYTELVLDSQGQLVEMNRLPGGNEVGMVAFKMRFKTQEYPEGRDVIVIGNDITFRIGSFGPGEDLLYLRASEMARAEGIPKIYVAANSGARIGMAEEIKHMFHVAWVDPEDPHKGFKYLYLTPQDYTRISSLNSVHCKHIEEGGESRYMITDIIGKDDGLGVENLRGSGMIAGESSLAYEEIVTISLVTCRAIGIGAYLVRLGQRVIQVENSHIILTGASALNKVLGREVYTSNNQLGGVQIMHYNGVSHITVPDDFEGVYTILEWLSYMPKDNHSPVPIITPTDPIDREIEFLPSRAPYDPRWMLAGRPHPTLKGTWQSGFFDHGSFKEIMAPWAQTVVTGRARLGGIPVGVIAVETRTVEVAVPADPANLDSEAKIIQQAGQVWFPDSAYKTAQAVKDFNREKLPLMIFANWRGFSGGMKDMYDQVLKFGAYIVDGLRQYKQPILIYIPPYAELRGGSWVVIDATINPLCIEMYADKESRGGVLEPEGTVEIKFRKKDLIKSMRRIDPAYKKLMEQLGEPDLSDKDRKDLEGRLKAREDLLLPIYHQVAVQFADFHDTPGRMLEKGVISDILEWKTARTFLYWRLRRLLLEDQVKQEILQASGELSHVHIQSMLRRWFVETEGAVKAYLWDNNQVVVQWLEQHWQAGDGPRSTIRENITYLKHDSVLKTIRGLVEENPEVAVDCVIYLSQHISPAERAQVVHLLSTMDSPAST

SMILES	IC50 ([1]; Table 2a) [nM]	IC50 ([1]; Table 2b, additional results) [nM]	MIC ([2]; Table 3a) [µg/mL]	MIC ([2]; Table 3b (additional results)) [µg/mL]	MIC ([3]; Table 3a) [µg/mL]	MIC ([3]; Table 3b (additional results)) [µg/mL]	MIC ([4]; Table 3a) [µg/mL]	MIC ([4]; Table 3b (additional results)) [µg/mL]	IC50 ([13]; Table 2a) [nM]	IC50 ([13]; Table 2b, additional results) [nM]	IC90 [5, 15] [µg/mL]	IC90 [6, 15] [µg/mL]	IC90 [7, 15] [µg/mL]	IC90 [8, 15] [µg/mL]	IC90 [9, 15] [µg/mL]	IC90 [10, 15] [µg/mL]	IC90 [11, 15] [µg/mL]	IC90 [12, 15] [µg/mL]	also measured
COCCO[C@@H](Cn1c(=O)n([C@H](C)C(=O)NC(C)C)c(=O)c2c(C)c(-n3nccn3)sc21)c1cc(F)ccc1OC [Compound I-67, (R)-2-(1-((R)-2-(5-fluoro-2-methoxyphenyl)-2-(2-methoxy-ethoxy)ethyl)-5-methyl-2,4-dioxo-6-(2H-1,2,3-triazol-2-yl)-1,4-dihydrothieno[2,3-d]pyrimidin-3(2H)-yl)-N-isopropylpropanamide]	5 to 10	5 to 10	1.1 to 2 (≈ 1.87 to 3.4 µM)	> 4.01	0.25 to 1 (≈ 0.425 to 1.7 µM)	2.01 to 4 (≈ 3.41 to 6.8 µM)	1.1 to 2 (≈ 1.87 to 3.4 µM)	1.01 to 2 (≈ 1.72 to 3.4 µM)	1 to 5	1 to 5									IC90 [5, 14]: 0.08 µg/mL (≈ 0.136 µM); IC90 [6, 14]: 0.08 µg/mL (≈ 0.136 µM); IC90 [7, 14]: 0.08 µg/mL (≈ 0.136 µM); IC90 [8, 14]: 0.08 µg/mL (≈ 0.136 µM); IC90 [9, 14]: 0.4 µg/mL (≈ 0.68 µM); IC90 [10, 14]: > 50 µg/mL; IC90 [11, 14]: 0.08 µg/mL (≈ 0.136 µM); IC90 [12, 14]: 10 µg/mL (≈ 17 µM)
CCOC(=O)C(C)(C)n1c(=O)c2c(C)c(-n3nccn3)sc2n(C[C@H](OCCO)c2cc(F)ccc2OC)c1=O [Compound I-74, Ethyl (R)-2-(1-(2-(5-fluoro-2-methoxyphenyl)-2-(2-hydroxyethoxy)ethyl)-5-methyl-2,4-dioxo-6-(2H-1,2,3-triazol-2-yl)-1,4-dihydro-thieno[2,3-d]pyrimidin-3(2H)-yl)-2-methylpropanoate]	5 to 10	5 to 10	2.1 to 4 (≈ 3.65 to 6.95 µM)	2.01 to 4 (≈ 3.49 to 6.95 µM)	0.25 to 1 (≈ 0.434 to 1.74 µM)	1.01 to 2 (≈ 1.75 to 3.47 µM)	2.1 to 4 (≈ 3.65 to 6.95 µM)	2.01 to 4 (≈ 3.49 to 6.95 µM)	1 to 5	1 to 5	0.08 (≈ 0.139 µM)	0.4 (≈ 0.695 µM)	0.4 (≈ 0.695 µM)	0.08 (≈ 0.139 µM)	0.4 (≈ 0.695 µM)	> 50	0.08 (≈ 0.139 µM)	10 (≈ 17.4 µM)	
CCc1ccc(F)cc1[C@H](Cn1c(=O)n(C(C)(C)C(=O)NC(C)C)c(=O)c2c(C)c(-n3nccn3)sc21)OCCO [Compound I-124]	1 to 5	1 to 5	0.25 to 1 (≈ 0.426 to 1.7 µM)	2.01 to 4 (≈ 3.43 to 6.82 µM)	0.06 to 0.24 (≈ 0.102 to 0.409 µM)	2.01 to 4 (≈ 3.43 to 6.82 µM)	0.25 to 1 (≈ 0.426 to 1.7 µM)	2.01 to 4 (≈ 3.43 to 6.82 µM)	0.4 to 1	0.3 to 1	0.4 (≈ 0.682 µM)	0.08 (≈ 0.136 µM)	0.4 (≈ 0.682 µM)	0.08 (≈ 0.136 µM)	0.08 (≈ 0.136 µM)	10 (≈ 17 µM)	0.08 (≈ 0.136 µM)	2 (≈ 3.41 µM)	
CCc1ccc(F)cc1[C@H](Cn1c(=O)n(C(C)(C)C(=O)NC(C)C)c(=O)c2c(C)c(-n3nccn3)sc21)OCCOC [Compound I-126]	5 to 10	5 to 10	1.1 to 2 (≈ 1.83 to 3.33 µM)	> 4.01	0.25 to 1 (≈ 0.416 to 1.66 µM)	> 4.01	1.1 to 2 (≈ 1.83 to 3.33 µM)	2.01 to 4 (≈ 3.35 to 6.66 µM)	1 to 5	1 to 5	0.4 (≈ 0.666 µM)	0.4 (≈ 0.666 µM)	2 (≈ 3.33 µM)	0.08 (≈ 0.133 µM)	0.4 (≈ 0.666 µM)	> 50	2 (≈ 3.33 µM)	10 (≈ 16.6 µM)	
